In ChEMBL document CHEMBL1153992, “2-Azidoalkoxy-7-hydro-8-oxoadenine derivatives as TLR7 agonists inducing dendritic cell maturation” (Bioorg Med Chem Lett, 2009):
The source made the active and inactive calls. No cut-off for these calls is given here.

What was measured:
Type in all cases: cell-based
[1] = molecular target: T1, Toll-like receptor 7 (Mus musculus) (UniProt P58681); assay: Induction of TLR7 receptor-mediated C57BL/6 mouse BMD cells activation assessed as upregulation of CD86 at 1 uM after 48 hrs by flow cytometry
T1 sequence (whole entry): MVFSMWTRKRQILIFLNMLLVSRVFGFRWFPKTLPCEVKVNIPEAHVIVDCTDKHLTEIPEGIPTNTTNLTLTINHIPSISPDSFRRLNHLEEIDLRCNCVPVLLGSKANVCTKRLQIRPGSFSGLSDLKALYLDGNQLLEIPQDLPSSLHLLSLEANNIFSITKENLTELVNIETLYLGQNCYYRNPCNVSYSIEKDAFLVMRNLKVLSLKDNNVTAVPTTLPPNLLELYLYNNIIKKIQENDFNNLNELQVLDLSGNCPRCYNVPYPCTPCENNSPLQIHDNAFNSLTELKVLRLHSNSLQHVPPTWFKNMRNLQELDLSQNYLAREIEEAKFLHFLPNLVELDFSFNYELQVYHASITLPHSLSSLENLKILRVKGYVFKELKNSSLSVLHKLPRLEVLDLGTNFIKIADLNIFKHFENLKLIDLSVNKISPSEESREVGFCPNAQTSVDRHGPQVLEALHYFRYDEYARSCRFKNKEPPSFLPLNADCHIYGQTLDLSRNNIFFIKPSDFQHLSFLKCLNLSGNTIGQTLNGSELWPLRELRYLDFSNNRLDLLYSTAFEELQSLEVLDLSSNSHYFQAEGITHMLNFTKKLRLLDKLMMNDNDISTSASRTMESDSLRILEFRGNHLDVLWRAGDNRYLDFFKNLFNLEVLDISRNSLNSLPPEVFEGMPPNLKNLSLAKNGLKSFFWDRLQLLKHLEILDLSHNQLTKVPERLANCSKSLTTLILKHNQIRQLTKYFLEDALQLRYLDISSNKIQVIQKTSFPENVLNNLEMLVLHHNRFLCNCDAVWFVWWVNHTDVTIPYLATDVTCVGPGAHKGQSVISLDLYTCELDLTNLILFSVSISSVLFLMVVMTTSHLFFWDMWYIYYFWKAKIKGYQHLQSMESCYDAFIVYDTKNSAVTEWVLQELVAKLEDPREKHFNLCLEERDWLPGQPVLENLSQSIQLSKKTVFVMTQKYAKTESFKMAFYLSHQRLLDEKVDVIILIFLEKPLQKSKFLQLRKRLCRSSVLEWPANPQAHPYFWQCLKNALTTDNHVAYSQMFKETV

[2] = molecular target: T1, Toll-like receptor 7 (Mus musculus); assay: Induction of TLR7 receptor-mediated C57BL/6 mouse BMD cells activation assessed as upregulation of MHC class-2 at 1 uM after 48 hrs by flow cytometry
[3] = molecular target: T1, Toll-like receptor 7 (Mus musculus); assay: Induction of TLR7 receptor-mediated C57BL/6 mouse BMD cells activation assessed as upregulation of CD40 at 1 uM after 48 hrs by flow cytometry
[4] = molecular target: T1, Toll-like receptor 7 (Mus musculus); assay: Induction of TLR7 receptor-mediated C57BL/6 mouse BMD cells activation assessed as IL12 production at 5 uM after 24 hrs by ELISA
[5] = molecular target: T1, Toll-like receptor 7 (Mus musculus); assay: Induction of TLR7 receptor-mediated C57BL/6 mouse BMD cells activation assessed as IL12 production at 0.1 uM after 24 hrs by ELISA
[6] = molecular target: T1, Toll-like receptor 7 (Mus musculus); assay: Induction of TLR7 receptor-mediated C57BL/6 mouse BMD cells activation assessed as IL12 production at 10 nM after 24 hrs by ELISA

Activity [1] | Activity [2] | Activity [3] | Activity [4] | Activity [5] | Activity [6] | SMILES
Active | Active | Active | Active |  |  | [N-]=[N+]=NCCCCOc1nc(N)c2[nH]c(=O)n(Cc3ccccc3)c2n1
Active | Active | Active | Active |  |  | COCCOc1nc(N)c2[nH]c(=O)n(Cc3ccccc3)c2n1
inactive | inactive | inactive |  |  |  | [N-]=[N+]=NCCOCCOCCOc1nc(N)c2[nH]c(=O)n(Cc3ccccc3)c2n1
Active | Active | Active | Active |  |  | [N-]=[N+]=NCCCCCOc1nc(N)c2[nH]c(=O)n(Cc3ccccc3)c2n1
Active | Active | Active | Active | Active |  | [N-]=[N+]=NCCOc1nc(N)c2[nH]c(=O)n(Cc3ccccc3)c2n1
Active | Active | Active | Active |  |  | [N-]=[N+]=NCCCCCCOc1nc(N)c2[nH]c(=O)n(Cc3ccccc3)c2n1
Active | Active | Active | Active |  | Active | CCCCOc1nc(N)c2[nH]c(=O)n(Cc3ccccc3)c2n1
Active | Active | Active | Active | Active |  | [N-]=[N+]=NCCCOc1nc(N)c2[nH]c(=O)n(Cc3ccccc3)c2n1
Active | Active | Active | Active |  |  | [N-]=[N+]=NCCOCCOc1nc(N)c2[nH]c(=O)n(Cc3ccccc3)c2n1
Active | Active | Active | Active |  |  | CCOCc1nc2c(N)nc3ccccc3c2n1CC(C)(C)O
